Measured values published in the NIST ThermoML archive (doi:10.1016/j.jct.2007.03.002).
Where “and” joins values, the source holds several entries; their conditions need not be identical. Equal entries are not always repeated. ± gives the expanded uncertainty stated by the source.

Columns and labels:
[1] = molar enthalpy of vaporization or sublimation; details: 298.15 K; Crystal; Static calorimetry
[2] = Crystal; for vapor or sublimation pressure: Calculated from knudsen effusion weight loss; for Normal melting temperature: DTA
[3] = Molar enthalpy of transition or fusion; details: Crystal; DSC
[4] = molar heat capacity at constant pressure; details: 298.15 K; 101.33 kPa; Crystal; Drop calorimetry

Row | molar enthalpy [1] [kcal/mol] | vapor or sublimation pressure ([2]; 316 K) [kPa] | Normal melting temperature [2] [°C] | Molar enthalpy of transition or fusion [3] [kcal/mol] | molar heat capacity at constant pressure [4] [J/K/mol] | mass density ([2]; 298.15 K, 101.33 kPa, mass and size of pellet) [kg/m3] | SMILES | vapor or sublimation pressure ([2]; 313 K) | vapor or sublimation pressure ([2]; 319 K) | vapor or sublimation pressure ([2]; 322 K)
1 | 25.6 ± 0.311 | 0.0001736 ± 5.2e-05 | 49.2 ± 0.7 | 4.71 ± 0.12 | 268.98 ± 22 | – | OCc1ccccc1-c1ccccc1 [2-biphenylmethanol] | 0.0001171 ± 3.5e-05 kPa and 0.0001179 ± 3.6e-05 kPa | 0.0002555 ± 7.7e-05 kPa and 0.0002537 ± 7.7e-05 kPa | 0.0003732 ± 0.00011 kPa and 0.0003682 ± 0.00011 kPa
2 | 25.6 ± 0.86 | – | 100.6 ± 0.7 | 6.45 ± 0.143 | 256.08 ± 66 | 1390 ± 360 | OCc1ccc(-c2ccccc2)cc1 [4-biphenylmethanol] | – | – | –
